Results taken from patent US6737383B1, “Herbicidal oxadiazolidines” (priority 1999, dated 2004).

Columns and labels:
certain weeds = test: Test F overall statement on synergism with rimsulfuron (Colby's equation); assay type: in vivo; conditions: combinations with rimsulfuron, preemergence
Procedure: Abutilon theophrasti (ABUTH), Chenopodium album (CHEAL), Amaranthus rudis (AMATA), Setaria […]), Panicum dichotomiflorum (PANDI), and Digitaria sanguinalis (DIGSA) were grown from seed in pots of an artificial potting mixture in a greenhouse. Compounds of the present invention were applied at 70 and 105 g ai/ha preemergence. Rimsulfuron was applied at 8.8 and 17.5 g ai/ha. Mixtures of the compounds of the present invention and rimsulfuron were also applied. Following application, the plants were maintained by watering as needed. A fertilizer solution of Peter's 20-20-20 (10 pounds/5 gallons of water) plus Sprint 330, a Iron Chelate micronutrient, (113.5 grams/5 gallons of water) was injected into the water with an Anderson fertilizer injection system to provide approximately 219 ppm of nitrogen with each watering. Artificial lighting was used to supplement natural light to produce a 14 hour photoperiod and: an additional one hour light period was used between 1:00 am to 2:00 am for a night interruption. Greenhouse temperatures were targeted for 27° C. in the day and 21° C. at night. At 21 days after treatment, all plants were evaluated for injury as compared to control plants that were sprayed only with non-phytotoxic solvent. […] Colby's equation was used to calculate the expected additive herbicidal effect of the mixtures of Compound 21 and the mixture partners listed above. […]

fall panicum = test: Test C postemergence fall panicum; assay type: in vivo, Panicum dichotomiflorum; conditions: 0 to 100 scale, 0 no effect, 100 complete control
Procedure: (§1) Compounds evaluated in this test were formulated in a non-phytotoxic solvent mixture which included a surfactant and applied to plants that were grown for various periods of time before treatment (postemergence application). A mixture of sandy loam soil and greenhouse potting mix in a 60:40 ratio was used for the postemergence test.
(§2) Plantings of these crops and weed species were adjusted to produce plants of appropriate size for the postemergence test. All plant species were grown using normal greenhouse practices. Crop and weed species include arrowleaf sida (Sida rhombifolia), barnyardgrass (Echinochloa crus-galli), cocklebur (Xanthium strumarium), common ragweed (Ambrosia elatior), corn (Zea mays), cotton (Gossypium hirsutum), eastern black nightshade (Solanum ptycanthum), fall panicum (Panicum dichotomiflorum), field bindweed (Convolvulus arvensis), giant foxtail (Setaria faberii), hairy beggarticks (Bidens pilosa), ivyleaf morningglory (Ipomoea hederacea), johnsongrass (Sorghum halepense), ladysthumb smartweed (Polygonum persicaria), lambsquarters (Chenopodium album), large crabgrass (Digitaria sanguinalis), purple nutsedge (Cyperus rotundus), redroot pigweed (Amaranthus retroflexus), soybean (Glycine max), surinam grass (Brachiaria decumbens), velvetleaf (Abutilon theophrasti) and wild poinsettia (Euphorbia heterophylla).
(§3) Treated plants and untreated controls were maintained in a greenhouse for approximately 14, to 21 days, after which all treated plants were compared to untreated controls and visually evaluated. Plant response ratings, summarized in Table C, were based upon a 0 to 100 scale where 0 was no effect and 100 was complete control. A dash response (−) means no test result.

soybean = test: Test C postemergence soybean; assay type: in vivo, Glycine max; conditions: 0 to 100 scale, 0 no effect, 100 complete control
Procedure: as §1, §2, §3

Amaranthus rudis (AMATA) = test: Test F preemergence, alone and in mixture with rimsulfuron, AMATA; assay type: in vivo; conditions: 21 days after treatment, 0-100 scale
Procedure: Abutilon theophrasti (ABUTH), Chenopodium album (CHEAL), Amaranthus rudis (AMATA), Setaria faberii (SETFA), Panicum dichotomiflorum (PANDI), and Digitaria sanguinalis (DIGSA) were grown from seed in pots of an artificial potting mixture in a greenhouse. Compounds of the present invention were applied at 70 and 105 g ai/ha preemergence. Rimsulfuron was applied at 8.8 and 17.5 g ai/ha. Mixtures of the compounds of the present invention and rimsulfuron were also applied.
Following application, the plants were maintained by watering as needed. A fertilizer solution of Peter's 20-20-20 (10 pounds/5 gallons of water) plus Sprint 330, a Iron Chelate micronutrient, (113.5 grams/5 gallons of water) was injected into the water with an Anderson fertilizer injection system to provide approximately 219 ppm of nitrogen with each watering. Artificial lighting was used to supplement natural light to produce a 14 hour photoperiod and: an additional one hour light period was used between 1:00 am to 2:00 am for a night interruption. Greenhouse temperatures were targeted for 27° C. in the day and 21° C. at night. At 21 days after treatment, all plants were evaluated for injury as compared to control plants that were sprayed only with non-phytotoxic solvent.
Colby's equation was used to calculate the expected additive herbicidal effect of the mixtures of Compound 21 and the mixture partners listed above. […]

Structure (SMILES): CC(C)N(C(=O)n1oc(=O)n(C(C)C)c1=O)c1ccccc1 [Compound 113]
- Weed control of combination with rimsulfuron compared with expectation from Colby's equation (certain weeds): better control of certain weeds than expected
- Plant response rating Fall panicum (fall panicum; Rate 140 g/ha): 60
- Plant response rating Fall panicum (fall panicum; Rate 280 g/ha): 80
- Plant response rating Fall panicum (fall panicum; Rate 560 g/ha): 85
- Plant response rating Fall panicum (fall panicum; Rate 1120 g/ha): 85
- Plant response rating, Soybean (soybean; Rate 140 g/ha): 40
- Plant response rating, Soybean (soybean; Rate 280 g/ha): 70
- Plant response rating, Soybean (soybean; Rate 560 g/ha): 85
- Plant response rating, Soybean (soybean; Rate 1120 g/ha): 85
- AMATA Observed (Amaranthus rudis (AMATA); Alone: Cmpd. rate 70, Rimsulfuron 0): 35%
- AMATA Observed (Amaranthus rudis (AMATA); Alone: Cmpd. rate 105, Rimsulfuron 0): 25%
